{
  "source": "patent US20190160035A1",
  "about": "“METHOD OF TREATMENT” (QBIOTICS LIMITED, priority 2016, published 2019)",
  "experiment": "Example 2: body weights, clinical examinations and adverse events (VCOG-CTCAE)",
  "format": "in vivo, dogs",
  "design": "key to Local swelling at treatment site: VCOG-CTCAE Grade classification / Pain associated with treatment site: VCOG-CTCAE Grade classification / Transient tachypnoea: VCOG-CTCAE Grade classification / Transient lethargy: VCOG-CTCAE Grade classification / Transient tachycardia: VCOG-CTCAE Grade classification / Transient elevated blood pressure reading: VCOG-CTCAE Grade classification / Transient salivation: VCOG-CTCAE Grade classification / Emesis: VCOG-CTCAE Grade classification / Wound sinus: VCOG-CTCAE Grade classification: ‘mild’ VCOG-CTCAE classification Grade 1 with no intervention required",
  "method": "Body weights were collected on each enrolled dog at screening, immediately pre-treatment, at approximately 24 hours, 48 hours post-treatment, and at 7(+1) days, 14(+1) days and 21(+2) days post treatment. The percent bodyweight change is calculated as the difference between immediate pre-treatment and Day 21 (+2) post-treatment values. A positive value indicates weight gain, a negative value indicates weight loss.\nClinical parameters such as rectal temperature (° C.), heart rate (HR) per minute, respiratory rate (RR) per minute, capillary refill time (CRT) (sec), systolic and diastolic blood pressure (mmHg), and mucosal colour were collected on each enrolled dog at screening, immediately pre-treatment, at approximately 24 hours, 48 hours post-treatment, and at 7(±1), 14(±1) and 21(±2) days post treatment. With each parameter evaluated for trends over time, and in context with all other contemporaneously collected parameters, the clinical parameter data is deemed unremarkable for all trial dogs.\nDogs were evaluated for adverse events (AEs) on Days 0 (pre-treatment), 1, 2, 7(±1), 14(±1) and 21(±2) as well as interim timepoints if needed. An AE was defined as any unfavorable and unintended sign, symptom, or disease temporally associated with the use of Compound 1, whether or not related to the product (VCOG-CTCAE 2011).",
  "key": {"[1]": {"conditions": "cohort 3, 0.2 mg/mL, out of 7 dogs"}},
  "data": [
    {"compound": "C/C=C(\\C)C(=O)O[C@@H]1[C@@H](C)[C@@]2(O)[C@H]([C@@H]3C(C)(C)[C@]13OC(=O)[C@@H](C)CC)[C@@H]1O[C@]1(CO)[C@@H](O)[C@]1(O)C(=O)C(C)=C[C@H]12", "note": "[Compound 1, 12-tigloyl-13-(2-methylbutanoyl)-6,7-epoxy-4,5,9,12,13,20-hexahydroxy-1-tigliaen-3-one]", "values": [
      {"measurement": "Pain associated with treatment site: Incidence (%)", "setting": "Grade 1, all patients (n = 27)", "result": 14.8, "unit": "%"},
      {"measurement": "Pain associated with treatment site: No. of events", "setting": "Grade 1, all patients (n = 27)", "result": 4},
      {"measurement": "Pain associated with treatment site (oral analgesic): Incidence (%)", "setting": "Grade 2, all patients (n = 27)", "result": 22.2, "unit": "%"},
      {"measurement": "Pain associated with treatment site (oral analgesic): No. of events", "setting": "Grade 2, all patients (n = 27)", "result": 6},
      {"measurement": "Bilateral otitis externa (oral antibiotic): Incidence (%)", "setting": "all patients (n = 27)", "result": 3.7, "unit": "%"},
      {"measurement": "Bilateral otitis externa (oral antibiotic): No. of events", "setting": "all patients (n = 27)", "result": 1},
      {"measurement": "Bilateral otitis externa (oral antibiotic): VCOG-CTCAE Grade classification", "setting": "all patients (n = 27)", "result": 2},
      {"measurement": "Corneal ulcer (antibiotic ointment and oral analgesic): Incidence (%)", "setting": "all patients (n = 27)", "result": 3.7, "unit": "%"},
      {"measurement": "Corneal ulcer (antibiotic ointment and oral analgesic): No. of events", "setting": "all patients (n = 27)", "result": 1},
      {"measurement": "Corneal ulcer (antibiotic ointment and oral analgesic): VCOG-CTCAE Grade classification", "setting": "all patients (n = 27)", "result": 2},
      {"measurement": "Emesis: Incidence (%)", "setting": "all patients (n = 27)", "result": 7.4, "unit": "%"},
      {"measurement": "Emesis: No. of events", "setting": "all patients (n = 27)", "result": 2},
      {"measurement": "Emesis: VCOG-CTCAE Grade classification", "setting": "all patients (n = 27)", "result": 1},
      {"measurement": "Flatulence (oral antibiotic): Incidence (%)", "setting": "all patients (n = 27)", "result": 3.7, "unit": "%"},
      {"measurement": "Flatulence (oral antibiotic): No. of events", "setting": "all patients (n = 27)", "result": 1},
      {"measurement": "Flatulence (oral antibiotic): VCOG-CTCAE Grade classification", "setting": "all patients (n = 27)", "result": 2},
      {"measurement": "Local swelling at treatment site: Incidence (%)", "setting": "all patients (n = 27)", "result": 81.5, "unit": "%"},
      {"measurement": "Local swelling at treatment site: No. of events", "setting": "all patients (n = 27)", "result": 22},
      {"measurement": "Local swelling at treatment site: VCOG-CTCAE Grade classification", "setting": "all patients (n = 27)", "result": 1},
      {"measurement": "Number of AEs of ‘mild’ VCOG-CTCAE Grade 1 (no intervention required)", "setting": "all patients (n = 27)", "result": 52},
      {"measurement": "Number of AEs requiring minimal medical intervention or additional analgesic therapy", "setting": "all patients (n = 27)", "result": 12},
      {"measurement": "Pain associated with treatment site (oral analgesic): VCOG-CTCAE Grade classification", "setting": "all patients (n = 27)", "result": 2},
      {"measurement": "Seborrhoea (oral antibiotic): Incidence (%)", "setting": "all patients (n = 27)", "result": 3.7, "unit": "%"},
      {"measurement": "Seborrhoea (oral antibiotic): No. of events", "setting": "all patients (n = 27)", "result": 1},
      {"measurement": "Seborrhoea (oral antibiotic): VCOG-CTCAE Grade classification", "setting": "all patients (n = 27)", "result": 2},
      {"measurement": "Transient elevated blood pressure reading: Incidence (%)", "setting": "all patients (n = 27)", "result": 3.7, "unit": "%"},
      {"measurement": "Transient elevated blood pressure reading: No. of events", "setting": "all patients (n = 27)", "result": 1},
      {"measurement": "Transient elevated blood pressure reading: VCOG-CTCAE Grade classification", "setting": "all patients (n = 27)", "result": 1},
      {"measurement": "Transient lethargy: Incidence (%)", "setting": "all patients (n = 27)", "result": 18.5, "unit": "%"},
      {"measurement": "Transient lethargy: No. of events", "setting": "all patients (n = 27)", "result": 5},
      {"measurement": "Transient lethargy: VCOG-CTCAE Grade classification", "setting": "all patients (n = 27)", "result": 1},
      {"measurement": "Transient salivation: Incidence (%)", "setting": "all patients (n = 27)", "result": 3.7, "unit": "%"},
      {"measurement": "Transient salivation: No. of events", "setting": "all patients (n = 27)", "result": 1},
      {"measurement": "Transient salivation: VCOG-CTCAE Grade classification", "setting": "all patients (n = 27)", "result": 1},
      {"measurement": "Transient tachycardia: Incidence (%)", "setting": "all patients (n = 27)", "result": 7.4, "unit": "%"},
      {"measurement": "Transient tachycardia: No. of events", "setting": "all patients (n = 27)", "result": 2},
      {"measurement": "Transient tachycardia: VCOG-CTCAE Grade classification", "setting": "all patients (n = 27)", "result": 1},
      {"measurement": "Transient tachypnoea: Incidence (%)", "setting": "all patients (n = 27)", "result": 51.9, "unit": "%"},
      {"measurement": "Transient tachypnoea: No. of events", "setting": "all patients (n = 27)", "result": 14},
      {"measurement": "Transient tachypnoea: VCOG-CTCAE Grade classification", "setting": "all patients (n = 27)", "result": 1},
      {"measurement": "Wound infection (oral antibiotic): Incidence (%)", "setting": "all patients (n = 27)", "result": 7.4, "unit": "%"},
      {"measurement": "Wound infection (oral antibiotic): No. of events", "setting": "all patients (n = 27)", "result": 2},
      {"measurement": "Wound infection (oral antibiotic): VCOG-CTCAE Grade classification", "setting": "all patients (n = 27)", "result": 2},
      {"measurement": "Wound sinus: Incidence (%)", "setting": "all patients (n = 27)", "result": 3.7, "unit": "%"},
      {"measurement": "Wound sinus: No. of events", "setting": "all patients (n = 27)", "result": 1},
      {"measurement": "Wound sinus: VCOG-CTCAE Grade classification", "setting": "all patients (n = 27)", "result": 1},
      {"measurement": "Total number of AEs identified", "setting": "all patients (n = 27), 15 event types", "result": 64},
      {"measurement": "Clinical parameter data (temperature, HR, RR, CRT, blood pressure, mucosal colour)", "setting": "all trial dogs, screening to Day 21", "result": "unremarkable"},
      {"measurement": "Number of dogs that lost weight", "setting": "cohort 1, 1.0 mg/mL", "result": 3},
      {"measurement": "Number of dogs that gained weight during the trial", "setting": "cohort 1, 1.0 mg/mL, out of 10 dogs, pre-treatment to Day 21", "result": 6},
      {"measurement": "Largest recorded weight loss", "setting": "cohort 1, dog NVC-103", "result": 3.9, "unit": "%"},
      {"measurement": "Number of dogs that lost body weight", "setting": "cohort 2, 0.5 mg/mL, out of 10 dogs", "result": 9},
      {"measurement": "Largest recorded weight loss", "setting": "cohort 2, dog GCV-204", "result": 5.6, "unit": "%"},
      {"measurement": "Number of dogs that gained weight", "setting": "[1]", "result": 3},
      {"measurement": "Number of dogs that lost weight", "setting": "[1]", "result": 4},
      {"measurement": "Largest recorded weight loss", "setting": "cohort 3, dog NVC-304", "result": 9.2, "unit": "%"},
      {"measurement": "Body weight gain", "setting": "dog NVC-102, cohort 1", "result": 15, "unit": "%"},
      {"measurement": "Pain associated with treatment site: VCOG-CTCAE Grade classification", "setting": "no intervention, all patients (n = 27)", "result": 1}
    ]}
  ]
}
